In US20040048823A1 (priority 2000, published 2004):

Assays:
[1] = test system: HUVEC (Human umbilical vein endothelial cell); experiment: Tube formation assay (In Vitro Angiogenesis Assay Kit); format: cell-based
Procedure: HUVEC (Human umbilical vein endothelial cell, American Type Culture Collection, Manassas, Va.) cells were maintained in HAM's F-12K nutrient mixture (Sigma, St. Louis, Mo.) with 10% fetal bovine serum and endothelial cell growth supplement (Sigma, St. Louis, Mo.). Cells were plated onto a 1% gelatinized plastic surface and incubated in the presence of 5% CO2 at 37° C. Tube formation assay was performed using an In Vitro Angiogenesis Assay Kit. (Chemicon, Temecula, Calif.) with following procedures. A 50 μl of the Diluent Buffer-ECMatrix solution mixture was transferred to 96-well tissue culture plate and kept at 37° C. for 1 hour for solidification of the matrix solution. HUVEC cells were seeded onto the surface of the polymerized ECMatrix in each well and incubated in the presence of ethanol (control) or mycolactone (containing 1% of ethanol).

[2] = test system: CPP32 caspase and poly-ADP-ribose polymerase in Hep3B cancer cells; experiment: Western blot of CPP32 caspase activation and poly-ADP-ribose polymerase cleavage; format: cell-based, human; details: mycolactone final 1 μg/ml
Procedure: CPP32 caspase activation and following cleavage of poly-ADP-ribose polymerase, typical biochemical phenomena of apoptosis, were examined by Western-blotting. Hep3B cancer cells (5×10^6) were cultured and treated with mycolactone (final 1 μg/ml). Cells were collected after 2, 4, 8, 12, 24, or 48 hours and Western blot was performed with anti-CPP32 antibody (Oncogene, Mass., USA) or anti-poly-ADP-ribose polymerase antibody (Enzyme Systems Products, CA, USA). Protein preparation was performed as follows. Cells were suspended in 400 μl of lysis buffer (125 mM Tris-HCl [pH 6.8], 20% glycerol, 2% SDS, and 10% β-mercaptoethanol), vortexed for 30 seconds, and kept at 95° C. for 5 minutes Cell lysates were separated on a 10% SDS-polyacrylamide gel and transferred to nitrocellulose membrane. Antibody reaction was performed with the antibodies describe above. CPP32 caspase activation was started at 4 hours and maintained until 24 hours, while the cleavage of poly-ADP-ribose polymerase was started at 8 hours after mycolactone treatment. […] Pro-CPP32 and Active CPP32 as shown on left are CPP32 caspase (the caspase 3) before and after activation, respectively; PARP is poly-ADP-ribose polymerase; cleaved PARP is cleaved poly-ADP-ribose polymerase.

murine L929 cell line = details: cited from earlier work
murine J779 cell line = details: cited from earlier work
[3] = test system: Hep3B human hepatoma cells transplanted to nude mice; experiment: In vivo anticancer effect in nude mice
Procedure: Hep3B human hepatoma cells were transplanted to nude mice and tumor growth was induced for 2 to 3 weeks. Then, mycolactone was injected to the tumor tissue by 4-3 days method, that is, injection for 4 days and rest for 3 days. PBS solution (50 μl) with or without mycolactone (20 μg) was injected to tumor of treatment (T) or control (C) mouse, respectively. The tumor volume was estimated by measuring both long and short diameters. The tumor volume at the day of first injection was 101.3 mm^3 (C) or 105.9 mm^3 (T).

[4] = test system: cancer cell lines (Malme3M, SNU1, MDAMB231, MOLT4, TCCSUP, Hep3B); experiment: Mycolactone-induced cancer cell death under light microscope; format: cell-based; details: mycolactone final 1 μg/ml, 72 hours, compared to not-treated
Procedure: Cancer cell lines used for the experiment was as follows; 2 skin cancer cell lines (Malme3M and SK-Mel-24), 1 breast cancer cell line (MDAMB231), 1 leukemia cell line (MOLT4), 1 stomach cancer cell line (SNU1); 1 bladder cancer cell line (TCCSUP), 8 hepatoma cell lines (SK-Hep1, Hep3B, SNU182, SNU387, SNU398, SNU449, SNU475, and HepG2), 2 colon cancer cell lines (HT-29 and DLD-1), and 1 oral cavity cancer cell line (SCC-15). Cancer cells were cultured in RPMI1640 media containing 10% fetal bovine serum, penicillin (10 unit/ml), and streptomycin (100 μg/ml) in 75 cm^2 flask at 37° C. in the presence of 5% CO2.
After cultivation of cancer cells ([…]) in 6-well plate for 24 hours, mycolactone (final 1 μg/ml) was added and the cell morphology was observed after 72 hours under light microscope. Cancer cells became round up and died after mycolactone treatment.
FIGS. (1a to 1f) show the results in skin cancer (Malme3M), stomach cancer (SNU1), breast cancer (MDAMB231), leukemia (MOLT4), bladder cancer (TCCSUP), and hepatoma (Hep3B). The morphological change of colon and oral cavity cancers is not shown.

[5] = test system: bcl-2 family genes in Hep3B cells; experiment: Ribonuclease protection assay (RPA) of bcl-2 family gene mRNA; format: cell-based, human
Procedure: To find target genes of mycolactone, mRNA transcription levels of bcl-2 family genes were examined. Total RNA was prepared from mycolactone-treated Hep3B cells and the expression of 7 genes belonging to bcl-2 family by ribonuclease protection assay (RPA). Total RNA was prepared with RNeasy minikit (Qiagen Inc., Chatsworth, Calif.) as described below. Mycolactone treated cancer cells were collected and washed with PBS. Cells were suspended in lysis buffer containing β-mercaptoethanol. Cells were passed through a 20-G syringe for more than 5 times. Equal volume of 70% ethanol was added and the suspension was mixed well. The suspension was applied to RNeasy mini spin column. The column was centrifuged at 10,000 rpm for 15 seconds and washed 2 times with washing buffer plus PRE buffer. RNA attached to the column was eluted with RNase-free distilled water. RNA was stored at −70° C. before use.
The mRNA expression profile of bcl-2 family genes was examined by RPA using multi-probe RNase Protection Assay System (PharMingen, CA, USA) with the following procedures. Specific RNA probe labeled with radioisotope is synthesized and used for hybridization with the RNA prepared from each sample. After removal of single-stranded RNA that is not hybridized with the probe and the residual riboprobe, the sample is electrophoresed on a denaturing polyacrylamide gel. After autoradiography, the mRNA expression was analyzed through measuring the density of hybridized bands.
RPA is a 3-Step Procedure
1). Synthesis of probe: Probe is synthesized by incubating transcription mixture solution ([…], 1 μl GACU pool, 2 μl DTT, 4 μl 5× transcription buffer, 1 μl RPA template set, 1 μlA T7 polymerase) at 37° C. for 1 hour. The reaction was stopped by adding 2 μl of DNase. Probe synthesis was completed by phenol treatment and ethanol precipitation The precipitated probe was dissolved in 50 μl of hybridization buffer.
2) RNA preparation and hybridization: Total RNA prepared (10-20 μg) was kept at −70° C. for 15 minutes and dried completely in vacuum evaporator. Hybridization was performed by the following reactions; addition of 8 μl of hybridization buffer, vortexing and brief centrifuge; addition and mixing of 2 μl of probe diluted at about 3×10^5 cpm/μl; addition of mineral oil. Hybridization mixture was kept briefly at 90° C., then incubated at 56° C. for 12 to 16 hours. Hybridization was completed by incubating the mixture at 37° C. for 15 minutes.
3) RNase treatment, electrophoresis, and autoradiography: RNase mixture (100 μl) was added to the hybridization mixture and the non-hybridized RNA was removed by incubating at 30° C. for 45 minutes. RNase digestion was terminated by adding proteinase K mixture solution. After phenol treatment and ethanol precipitation, the sample was dried. The sample was nixed with 5 μl of 1× loading buffer, heated at 90° C. for 3-minutes, kept on ice, electrophoresed ort a denaturing polyacrylamide gel, dried, and exposed to X-ray film.

Hep3B cancer cells = experiment: Morphological change by transmission electron microscopy; format: cell-based, human; details: mycolactone 1 μg/ml, 24 hours
Procedure: Morphological change of Hep3B cancer cells was observed by transmission electron microscopy (hereinafter, TEM) Cancer cells (5×10^6) were cultured and treated with mycolactone (1 μg/ml). Cell were collected after 24 hours and fixed with 2.5% glutaraldehyde. The sample was treated with OsO4, dehydrated with ethanol, and embedded to […].

[6] = test system: Rb protein in SNU475 (Rb-positive cancer cell line); experiment: Western blot of Rb protein expression after oligonucleotide transfection; format: cell-based, human; details: SNU475 transfected with 1 uM oligonucleotide, compared to sense Rb oligonucleotide transfectants
Procedure: An Rb-positive cancer cell SNU475 was cultured overnight in 6-well plate (5×10^6 cancer cells per well) with RPMI1640 medium. Sense or antisense Rb oligonucleotide, as described in Example 4, was transfected to the cultured cancer cells using Lipofectamine-PLUS (Gibco BRL, Grand Island, N.Y.) with the following procedures. Sense or antisense Rb oligonucleotide was diluted (final 1 uM) in fetal bovine serum-free RPMI1640 medium. PLUS reagent (Gibco BRL, NY, USA) was added, mixed well, and incubated at room temperature for 15 minutes. During this incubation, Lipofectamine was diluted in fetal bovine serum-fee RPMI1640 medium in separate test tubes. After 15 minutes, 2 solutions were mixed well and incubated at room temperature for 30 minutes for induction of oligonucleotide-Lipofectamine complex formation. During this incubation, the medium in overnight culture of the cancer cells was changed with fresh fetal bovine serum-free RPMI1640 medium. The solution containing oligonucleotide-Lipofectamine complex was carefully dropped on each culture plate and incubated at 37° C. for 3 hours. […]
Nuclear protein fraction was prepared to examine the Rb expression in SNU475 cell line transfected with sense or antisense Rb oligonucleotide by Western blotting. […] The protein concentration in the supernatant was determined and used for Western blotting. […]

CC(=C\C=C\C(C)=C\[C@H](O)[C@@H](O)C[C@H](C)O)/C=C(C)/C=C/C(=O)O[C@H]1CCCC(=O)O[C@@H]([C@@H](C)C/C(C)=C/[C@@H](C)[C@H](O)C[C@@H](C)O)C/C=C(\C)C[C@@H]1C [mycolactone]
inhibition of tube formation maintained until ([1]; mycolactone 1 μg): 7.5 h
tube formation ([1]; mycolactone 1 μg, after 4 hour): inhibited
tube formation ([1]; mycolactone 5 μg, after 4 hours): almost completely inhibited
CPP32 caspase activation maintained until [2]: 24 h
CPP32 caspase activation started at [2]: 4 h
cleavage of poly-ADP-ribose polymerase started at [2]: 8 h
cleavage of poly-ADP-ribose polymerase ([2]; after 48 hours): completely cleaved
cell death with prolonged treatment (murine L929 cell line; L929, prolonged treatment): apoptosis
cytopathic effects (murine L929 cell line; L929): detaching of cells from culture plates and cell rounding-up
time to G1 cell cycle arrest (murine L929 cell line; L929): ≤ 48 h
cell death with prolonged treatment (murine J779 cell line; J779, prolonged treatment): apoptosis
time to G1 cell cycle arrest (murine J779 cell line; J779): ≤ 48 h
tumor tissue inside the body at sacrifice ([3]; day 45, T mouse): not to have any tumor tissue
tumor, treated (T) versus control (C) mouse ([3]; first week, 20 μg injected into tumor, 4 days on, 3 days rest): no significant difference
tumor ([3]; fourth week, T mouse, 20 μg injected into tumor): disappeared
tumor volume ([3]; second week, T mouse, 20 μg injected into tumor, 105.9 mm^3 at first injection): 63.8 mm^3
tumor volume ([3]; third week, T mouse, 20 μg injected into tumor): 20.8 mm^3
condition of the treated mouse ([3]; until the day 45, T mouse): healthy
cancer cell death, cell morphology under light microscope [4]: Significant cell death
mRNA expression of bcl-2 [5]: very low mRNA expression without significant change
mRNA expression of bcl-w [5]: No change
mRNA expression of mcl-1 ([5]; after 4 hours, maintained until 24 hours): decreased slowly
mRNA expression of mcl-1 ([5]; at 2 hour): increased transiently
mRNA expression of bcl-XL ([5]; starting at 8 hours until 24 hours): decrease
mRNA expression of pro-apoptotic genes (bad, bak, and bax) ([5]; until 24 hours after treatment): no change
morphology by TEM (Hep3B cancer cells): typical apoptosis morphologies

antisense Rb oligonucleotide: phosphorothioate-backbone antisense oligonucleotide targeting the protein initiation codon region of human Rb mRNA (antisense GGGTTTTGGGCGGCATGA; all phosphorothioate, sugars by position and methylation of C not given here)
Rb protein expression [6]: Significant time-dependent decrease
